Test results from paper PMC11233931, “Remodeling tumor‐associated macrophage for anti‐cancer effects by rational design of irreversible inhibition of mitogen‐activated protein kinase‐activated protein kinase 2” (MedComm, 2024).

Tests used:
Assay in all cases: Eurofins kinase selectivity profile against 380 other human recombinant kinases (Table S2)
Type in all cases: biochemical
[1] = biological target: T1, 380 human recombinant protein kinases (Homo sapiens, UniProt O75747); details: PI3KC2γ(h), read-out: Inhibition rate (%)
T1 construct: purchased Eurofins (Celle Lévescault)
T1 sequence (O75747 1-1486): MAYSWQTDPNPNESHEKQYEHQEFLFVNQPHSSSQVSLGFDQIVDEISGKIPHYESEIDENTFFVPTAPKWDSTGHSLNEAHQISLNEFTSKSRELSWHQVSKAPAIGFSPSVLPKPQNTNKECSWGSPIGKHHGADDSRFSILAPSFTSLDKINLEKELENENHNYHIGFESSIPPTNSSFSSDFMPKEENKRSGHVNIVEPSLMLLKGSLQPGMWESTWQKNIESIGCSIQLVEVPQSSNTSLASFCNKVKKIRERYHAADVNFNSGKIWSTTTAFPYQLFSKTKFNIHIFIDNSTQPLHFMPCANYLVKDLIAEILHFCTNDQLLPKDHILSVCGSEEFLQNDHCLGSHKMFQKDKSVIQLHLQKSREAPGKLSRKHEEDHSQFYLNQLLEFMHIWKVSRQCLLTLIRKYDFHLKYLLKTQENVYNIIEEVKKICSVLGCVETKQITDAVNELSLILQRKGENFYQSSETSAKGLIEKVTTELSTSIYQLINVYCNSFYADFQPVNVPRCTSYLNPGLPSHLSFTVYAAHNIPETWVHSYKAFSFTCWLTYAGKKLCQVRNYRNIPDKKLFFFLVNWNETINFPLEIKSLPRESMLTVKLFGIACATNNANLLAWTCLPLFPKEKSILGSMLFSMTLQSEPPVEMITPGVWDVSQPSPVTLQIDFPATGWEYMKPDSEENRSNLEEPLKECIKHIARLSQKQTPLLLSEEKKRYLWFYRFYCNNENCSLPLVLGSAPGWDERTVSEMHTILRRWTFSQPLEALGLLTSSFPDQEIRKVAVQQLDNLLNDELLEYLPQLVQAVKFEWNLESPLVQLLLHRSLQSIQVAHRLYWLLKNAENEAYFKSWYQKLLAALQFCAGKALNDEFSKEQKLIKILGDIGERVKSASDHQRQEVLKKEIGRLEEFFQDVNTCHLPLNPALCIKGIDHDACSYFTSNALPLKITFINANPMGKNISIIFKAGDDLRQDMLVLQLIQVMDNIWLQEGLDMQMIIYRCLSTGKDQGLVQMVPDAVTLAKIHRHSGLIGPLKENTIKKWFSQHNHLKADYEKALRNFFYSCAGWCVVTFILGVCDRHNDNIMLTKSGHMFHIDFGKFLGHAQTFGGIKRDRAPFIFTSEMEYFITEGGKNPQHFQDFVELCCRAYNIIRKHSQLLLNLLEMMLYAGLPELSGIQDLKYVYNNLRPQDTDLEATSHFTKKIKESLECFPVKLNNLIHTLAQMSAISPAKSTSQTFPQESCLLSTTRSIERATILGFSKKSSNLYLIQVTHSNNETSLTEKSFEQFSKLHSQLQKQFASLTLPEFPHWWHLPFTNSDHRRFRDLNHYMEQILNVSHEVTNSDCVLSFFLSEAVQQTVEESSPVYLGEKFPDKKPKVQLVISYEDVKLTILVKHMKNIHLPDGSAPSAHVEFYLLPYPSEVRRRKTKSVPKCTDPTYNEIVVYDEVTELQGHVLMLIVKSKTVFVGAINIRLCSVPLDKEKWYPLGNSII
Procedure, shortened: (§1)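 Outsourced panel: 380 human recombinant kinases; inhibitor tested at various concentrations; purpose: MK2 selectivity check.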

[2] = biological target: T2, 380 human recombinant protein kinases (Homo sapiens, UniProt Q6IQ55); details: TTBK2(h), read-out: Inhibition rate (%)
T2 construct: purchased Eurofins (Celle Lévescault)
Procedure, shortened: as §1

[3] = biological target: T3, 380 human recombinant protein kinases (Homo sapiens, UniProt Q16620); details: TrkB(h), read-out: Inhibition rate (%)
T3 construct: purchased Eurofins (Celle Lévescault)
Procedure, shortened: as §1

[4] = biological target: T4, 380 human recombinant protein kinases (Homo sapiens, UniProt P34947); details: GRK5(h), read-out: Inhibition rate
T4 construct: purchased Eurofins (Celle Lévescault)
Procedure, shortened: as §1

[5] = biological target: T5, 380 human recombinant protein kinases (Homo sapiens, UniProt Q96J92); details: WNK4(h), read-out: Inhibition rate (%)
T5 construct: purchased Eurofins (Celle Lévescault)
Procedure, shortened: as §1

T4 sequence (P34947 whole entry): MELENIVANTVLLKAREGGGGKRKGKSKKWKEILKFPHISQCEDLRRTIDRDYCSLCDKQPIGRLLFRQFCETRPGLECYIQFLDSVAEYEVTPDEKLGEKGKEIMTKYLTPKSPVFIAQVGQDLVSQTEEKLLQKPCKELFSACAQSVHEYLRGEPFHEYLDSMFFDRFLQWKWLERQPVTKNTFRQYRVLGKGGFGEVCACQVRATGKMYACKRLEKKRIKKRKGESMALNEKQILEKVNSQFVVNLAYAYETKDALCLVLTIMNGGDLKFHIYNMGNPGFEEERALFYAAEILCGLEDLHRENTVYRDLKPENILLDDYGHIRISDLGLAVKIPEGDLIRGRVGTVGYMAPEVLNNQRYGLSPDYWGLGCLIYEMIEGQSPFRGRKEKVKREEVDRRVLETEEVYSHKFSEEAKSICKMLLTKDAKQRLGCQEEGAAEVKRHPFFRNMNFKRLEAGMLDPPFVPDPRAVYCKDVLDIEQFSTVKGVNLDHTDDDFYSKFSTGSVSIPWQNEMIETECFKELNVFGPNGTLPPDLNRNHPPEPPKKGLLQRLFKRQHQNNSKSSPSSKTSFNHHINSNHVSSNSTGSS
T5 sequence (Q96J92 whole entry): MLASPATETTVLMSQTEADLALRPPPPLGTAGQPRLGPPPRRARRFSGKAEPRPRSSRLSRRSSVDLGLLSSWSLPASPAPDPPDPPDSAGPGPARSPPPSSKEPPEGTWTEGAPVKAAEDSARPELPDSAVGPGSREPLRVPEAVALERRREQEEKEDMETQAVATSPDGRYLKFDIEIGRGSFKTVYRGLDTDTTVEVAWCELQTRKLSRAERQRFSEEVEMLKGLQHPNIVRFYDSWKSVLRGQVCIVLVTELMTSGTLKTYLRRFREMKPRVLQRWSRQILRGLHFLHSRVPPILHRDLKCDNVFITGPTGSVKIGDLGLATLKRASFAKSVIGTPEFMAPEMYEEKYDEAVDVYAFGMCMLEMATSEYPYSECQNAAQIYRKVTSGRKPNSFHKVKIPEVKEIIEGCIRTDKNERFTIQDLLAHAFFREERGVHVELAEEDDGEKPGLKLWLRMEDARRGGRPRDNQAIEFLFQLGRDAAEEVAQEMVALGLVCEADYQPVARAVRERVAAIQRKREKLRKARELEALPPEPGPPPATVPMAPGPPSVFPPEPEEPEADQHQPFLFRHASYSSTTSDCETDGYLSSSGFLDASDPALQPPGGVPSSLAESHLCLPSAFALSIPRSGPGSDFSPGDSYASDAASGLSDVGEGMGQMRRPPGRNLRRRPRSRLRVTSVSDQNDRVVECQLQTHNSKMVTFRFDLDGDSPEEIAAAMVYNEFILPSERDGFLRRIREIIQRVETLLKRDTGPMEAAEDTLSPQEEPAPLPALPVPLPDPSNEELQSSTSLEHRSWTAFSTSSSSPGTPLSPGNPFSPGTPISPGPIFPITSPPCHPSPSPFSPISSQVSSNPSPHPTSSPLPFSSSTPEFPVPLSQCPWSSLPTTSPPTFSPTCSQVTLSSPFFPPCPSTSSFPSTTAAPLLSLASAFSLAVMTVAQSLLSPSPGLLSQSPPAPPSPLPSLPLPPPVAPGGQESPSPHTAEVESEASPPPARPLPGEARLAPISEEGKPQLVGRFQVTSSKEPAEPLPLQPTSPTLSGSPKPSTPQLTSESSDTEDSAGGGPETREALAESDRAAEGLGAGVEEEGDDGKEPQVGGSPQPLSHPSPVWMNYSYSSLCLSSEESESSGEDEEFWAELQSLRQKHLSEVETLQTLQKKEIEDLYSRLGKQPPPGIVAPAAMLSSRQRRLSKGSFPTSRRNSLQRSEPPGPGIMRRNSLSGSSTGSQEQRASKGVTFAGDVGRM
T2 sequence (Q6IQ55 whole entry): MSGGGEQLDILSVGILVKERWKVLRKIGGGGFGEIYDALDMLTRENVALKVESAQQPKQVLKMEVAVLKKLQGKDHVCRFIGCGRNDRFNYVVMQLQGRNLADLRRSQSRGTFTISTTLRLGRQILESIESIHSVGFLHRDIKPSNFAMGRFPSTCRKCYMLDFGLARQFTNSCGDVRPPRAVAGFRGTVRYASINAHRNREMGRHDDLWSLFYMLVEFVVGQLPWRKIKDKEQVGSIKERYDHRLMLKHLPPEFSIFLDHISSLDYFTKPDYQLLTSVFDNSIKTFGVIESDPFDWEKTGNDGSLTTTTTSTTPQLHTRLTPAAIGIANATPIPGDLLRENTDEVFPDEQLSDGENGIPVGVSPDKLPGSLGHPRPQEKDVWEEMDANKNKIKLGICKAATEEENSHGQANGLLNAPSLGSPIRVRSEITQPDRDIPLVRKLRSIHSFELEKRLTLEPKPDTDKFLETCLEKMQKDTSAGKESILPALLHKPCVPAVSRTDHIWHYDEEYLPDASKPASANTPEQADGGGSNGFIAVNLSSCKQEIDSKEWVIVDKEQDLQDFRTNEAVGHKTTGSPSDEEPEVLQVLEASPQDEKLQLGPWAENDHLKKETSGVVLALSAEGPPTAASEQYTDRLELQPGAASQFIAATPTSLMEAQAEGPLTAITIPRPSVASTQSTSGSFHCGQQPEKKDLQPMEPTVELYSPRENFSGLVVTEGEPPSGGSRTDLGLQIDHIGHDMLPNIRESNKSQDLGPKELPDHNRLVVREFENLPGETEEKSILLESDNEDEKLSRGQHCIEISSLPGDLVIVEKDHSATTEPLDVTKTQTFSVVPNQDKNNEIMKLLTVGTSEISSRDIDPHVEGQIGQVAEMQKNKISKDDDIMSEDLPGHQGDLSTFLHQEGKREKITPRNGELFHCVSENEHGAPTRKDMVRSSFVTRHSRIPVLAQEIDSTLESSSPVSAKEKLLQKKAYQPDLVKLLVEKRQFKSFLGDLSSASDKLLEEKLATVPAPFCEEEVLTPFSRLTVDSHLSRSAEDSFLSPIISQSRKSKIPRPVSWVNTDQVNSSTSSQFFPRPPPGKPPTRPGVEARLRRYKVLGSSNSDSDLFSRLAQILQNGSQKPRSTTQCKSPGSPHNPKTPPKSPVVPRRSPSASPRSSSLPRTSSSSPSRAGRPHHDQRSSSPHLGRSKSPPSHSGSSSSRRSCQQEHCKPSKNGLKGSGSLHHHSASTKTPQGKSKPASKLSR
T3 sequence (Q16620 32-822): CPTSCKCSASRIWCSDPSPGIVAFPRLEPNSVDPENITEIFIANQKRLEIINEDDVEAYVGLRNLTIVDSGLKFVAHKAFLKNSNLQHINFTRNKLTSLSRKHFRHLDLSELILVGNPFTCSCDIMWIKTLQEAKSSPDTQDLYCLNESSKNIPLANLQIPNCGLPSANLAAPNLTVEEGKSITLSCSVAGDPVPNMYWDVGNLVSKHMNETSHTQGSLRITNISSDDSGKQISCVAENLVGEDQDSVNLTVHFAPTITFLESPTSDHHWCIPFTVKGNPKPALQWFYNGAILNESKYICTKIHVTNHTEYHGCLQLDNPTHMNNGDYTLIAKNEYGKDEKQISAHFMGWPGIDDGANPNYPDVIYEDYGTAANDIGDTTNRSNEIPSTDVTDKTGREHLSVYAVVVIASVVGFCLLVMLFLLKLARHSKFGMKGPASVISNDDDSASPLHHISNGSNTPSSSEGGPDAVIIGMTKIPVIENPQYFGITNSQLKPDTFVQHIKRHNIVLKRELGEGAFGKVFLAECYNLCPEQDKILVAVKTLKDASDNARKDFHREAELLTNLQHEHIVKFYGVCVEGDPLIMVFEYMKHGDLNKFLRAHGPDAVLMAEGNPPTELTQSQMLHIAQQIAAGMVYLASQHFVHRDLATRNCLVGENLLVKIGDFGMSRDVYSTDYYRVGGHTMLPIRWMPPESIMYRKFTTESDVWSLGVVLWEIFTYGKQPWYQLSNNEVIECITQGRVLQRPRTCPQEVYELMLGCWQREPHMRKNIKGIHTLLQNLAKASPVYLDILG

`C=CC(=O)Nc1cc(-c2cc(-c3cc4c([nH]3)CCNC4=O)ccn2)ccc1OC(F)(F)F` [compound 11] was tested. Which inhibition at 0.01 µM ([1]; 10 nM) did it give?
Its inhibition at 0.01 µM is 6%.

And the inhibition at 0.1 µM ([1]; 100 nM)?
The inhibition at 0.1 µM was 13%.

And the inhibition at 1 µM ([1]; 1000 nM)?
Its inhibition at 1 µM is 12%.

And the inhibition at 0.01 µM ([2]; 10 nM)?
Its inhibition at 0.01 µM is -1%.

What about the inhibition at 0.1 µM ([2]; 100 nM) of the same compound?
The inhibition at 0.1 µM was -3%.

What about the inhibition at 1 µM ([2]; 1000 nM) of the same compound?
Its inhibition at 1 µM is 3%.

What about the inhibition at 0.01 µM ([3]; 10 nM) of the same compound?
The inhibition at 0.01 µM was -6%.

What about the inhibition at 0.1 µM ([3]; 100 nM) of the same compound?
Its inhibition at 0.1 µM is -9%.

And the inhibition at 1 µM ([3]; 1000 nM)?
Its inhibition at 1 µM is -20%.

And the inhibition at 0.01 µM ([4]; 10 nM)?
The inhibition at 0.01 µM was -6%.

What about the inhibition at 0.1 µM ([4]; 100 nM) of the same compound?
Its inhibition at 0.1 µM is -2%.

What about the inhibition at 1 µM ([4]; 1000 nM) of the same compound?
Its inhibition at 1 µM is 0%.

And the inhibition at 0.01 µM ([5]; 10 nM)?
The inhibition at 0.01 µM was 6%.

And the inhibition at 0.1 µM ([5]; 100 nM)?
Its inhibition at 0.1 µM is 6%.

What about the inhibition at 1 µM ([5]; 1000 nM) of the same compound?
The inhibition at 1 µM was 3%.
